In patent US20230002359A1, “PESTICIDALLY ACTIVE FUSED BICYCLIC HETEROAROMATIC COMPOUNDS” (priority 2019, published 2023):

Assays:
Assay type in all cases: in vivo
[1] = tested on: Spodoptera littoralis (Egyptian Cotton Leaf Worm); test: Example B7: Spodoptera littoralis (Egyptian cotton leaf worm), cotton leaf discs sprayed, L1 larvae; conditions: foliar, 72 h, application rate of 200 ppm, 3 days after infestation, L1 larvae, read-out: control in at least one of the three categories (mortality, anti-feedant effect, or growth inhibition)
Outline: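 Leaf discs on agar sprayed with aqueous dilutions of 10′000 ppm DMSO stocks, dried, then infested with five L1 larvae. Mortality, anti-feeding and growth inhibition scored versus untreated 3 days after infestation; control given when any category exceeds untreated.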

[2] = tested on: Chilo suppressalis (Striped Rice Stemborer); test: Example B3: Chilo suppressalis (striped rice stemborer), artificial diet, L2 larvae; conditions: 144 h, application rate of 200 ppm, 6 days after infestation, L2 larvae, read-out: control in at least one of the three categories (mortality, anti-feedant effect, or growth inhibition)
Outline: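 Scoring covers mortality, anti-feedant effect and growth inhibition at 6 days post-infestation, relative to untreated diet, with activity defined as at least one category above untreated. Test solutions were aqueous, made from 10'000 ppm DMSO stocks, and applied to artificial diet before drying and infestation with L2 larvae.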

[3] = tested on: Plutella xylostella (Diamond Back Moth); test: Example B4: Plutella xylostella (diamond back moth), artificial diet, eggs, 24-well; conditions: 192 h, application rate of 200 ppm, 8 days after infestation, eggs, read-out: control in at least one of the two categories (mortality or growth inhibition)
Experimental: 24-well microtiter plates with artificial diet were treated with aqueous test solutions prepared from 10′000 ppm DMSO stock solutions by pipetting. After drying, Plutella eggs were pipetted through a plastic stencil onto a gel blotting paper and the plate was closed with it. The samples were assessed for mortality and growth inhibition in comparison to untreated samples 8 days after infestation.

[4] = tested on: Diabrotica Balteata (Corn Root Worm); test: Example B1: Diabrotica balteata (corn root worm), maize sprouts sprayed, L2 larvae; conditions: 96 h, application rate of 200 ppm, 4 days after infestation, L2 larvae, read-out: control in at least one of the two categories (mortality or growth inhibition)
Outline: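 Maize sprouts on agar were sprayed with aqueous test solutions made from 10′000 ppm DMSO stocks, dried, then infested with 6 to 10 L2 larvae per well. Mortality and growth inhibition were scored against untreated samples 4 days after infestation.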

CC(Nc1ncnc2c(C(F)(F)F)cc(C(F)(F)F)cc12)c1nccnc1-c1ccc(OC(F)F)cn1 (centres unmarked) [P.109, N-[1-[3-[5-(difluoromethoxy)-2-pyridyl]pyrazin-2-yl]ethyl]-6,8-bis(trifluoromethyl)quina-zolin-4-amine]
≥ 80%: percent control (mortality, anti-feedant effect or growth inhibition) at 200 ppm [1] | percent control (mortality, anti-feedant effect or growth inhibition) at 200 ppm [2] | percent control (mortality or growth inhibition) at 200 ppm [3] | percent control (mortality or growth inhibition) at 200 ppm [4]

CC(c1nccnc1-c1ncccn1)N(C)c1ccnc2c(C(F)(F)F)cc(C(F)(F)F)cc12 (centres unmarked) [P.249, N-methyl-N-[1-(3-pyrimidin-2-ylpyrazin-2-yl)ethyl]-6,8-bis(trifluoromethyl)quino-lin-4-amine]
≥ 80%: percent control (mortality, anti-feedant effect or growth inhibition) at 200 ppm [1] | percent control (mortality, anti-feedant effect or growth inhibition) at 200 ppm [2] | percent control (mortality or growth inhibition) at 200 ppm [3] | percent control (mortality or growth inhibition) at 200 ppm [4]

C[C@H](Nc1ccnc2c(C(F)(F)F)cc(Br)cc12)c1ncnn1-c1ncccn1 [P.253, 6-bromo-N-[(1S)-1-(2-pyrimidin-2-yl-1,2,4-triazol-3-yl)ethyl]-8-(trifluoromethyl)quinolin-4-amine]
≥ 80%: percent control (mortality, anti-feedant effect or growth inhibition) at 200 ppm [1] | percent control (mortality, anti-feedant effect or growth inhibition) at 200 ppm [2] | percent control (mortality or growth inhibition) at 200 ppm [3] | percent control (mortality or growth inhibition) at 200 ppm [4]

C[C@@H](c1ncnn1-c1ccc(C#N)cn1)N(C)c1ncnc2c(Cl)cc(C(F)(F)F)cc12 [P.19, 6-[5-[(1S)-1-[[8-chloro-6-(trifluoromethyl)quinazolin-4-yl]-methyl-amino]ethyl]-1,2,4-triazol-1-yl]pyridine-3-carbonitrile]
≥ 80%: percent control (mortality, anti-feedant effect or growth inhibition) at 200 ppm [1] | percent control (mortality, anti-feedant effect or growth inhibition) at 200 ppm [2] | percent control (mortality or growth inhibition) at 200 ppm [3] | percent control (mortality or growth inhibition) at 200 ppm [4]

CC(c1ncnn1-c1ccc(C#N)cn1)N(C)c1c(C#N)cnc2c(C(F)(F)F)cc(C(F)(F)F)cc12 (centres unmarked) [P.224, 4-[1-[2-(5-cyano-2-pyridyl)-1,2,4-tirazol-3-yl]ethyl-methyl-amino]-6,8-bis(trifluoromethy)quino-line-3-carbonitrile]
≥ 80%: percent control (mortality, anti-feedant effect or growth inhibition) at 200 ppm [1] | percent control (mortality, anti-feedant effect or growth inhibition) at 200 ppm [2] | percent control (mortality or growth inhibition) at 200 ppm [3] | percent control (mortality or growth inhibition) at 200 ppm [4]

CC(c1nccnc1-c1ncccn1)N(CC1CC1)c1ncnc2c(Br)cc(C(F)(F)F)cc12 (centres unmarked) [P.99, 8-bromo-N-(cyclopropylmethyl)-N-[1-(3-pyrimidin-2-ylpyrazin-2-yl)ethyl]-6-(trifluoromethyl)quinazolin-4-amine]
≥ 80%: percent control (mortality, anti-feedant effect or growth inhibition) at 200 ppm [1] | percent control (mortality, anti-feedant effect or growth inhibition) at 200 ppm [2] | percent control (mortality or growth inhibition) at 200 ppm [3] | percent control (mortality or growth inhibition) at 200 ppm [4]

C[C@@H](c1ncnn1-c1ccc(C#N)cn1)N(C)c1ccnc2c(C(F)(F)F)cc(C(F)(F)F)cc12 [P.214, 6-[5-[(1S)-1-[[6,8-bis(trifluoromethyl)-4-quinolyl]-methyl-amino]ethyl]-1,2,4-triazol-1-yl]pyridine-3-carbonitrile]
≥ 80%: percent control (mortality, anti-feedant effect or growth inhibition) at 200 ppm [1] | percent control (mortality, anti-feedant effect or growth inhibition) at 200 ppm [2] | percent control (mortality or growth inhibition) at 200 ppm [3] | percent control (mortality or growth inhibition) at 200 ppm [4]

CC(Nc1ncnc2c(Br)cc(C(F)(F)F)cc12)c1nccnc1-c1ccc(OC(F)F)cn1 (centres unmarked) [P.111, 8-bromo-N-[1-[3-[5-(difluoromethoxy)-2-pyridyl]pyrazin-2-yl]ethyl]-6-(trifluoromethyl)quinazolin-4-amine]
≥ 80%: percent control (mortality, anti-feedant effect or growth inhibition) at 200 ppm [1] | percent control (mortality, anti-feedant effect or growth inhibition) at 200 ppm [2] | percent control (mortality or growth inhibition) at 200 ppm [3] | percent control (mortality or growth inhibition) at 200 ppm [4]

CC(c1nccnc1-c1ccc(C#N)cn1)N(C)c1ncnc2c(Br)cc(C(F)(F)F)cc12 (centres unmarked) [P.124, 6-[3-[1-[[8-bromo-6-(trifluoromethyl)quinazolin-4-yl]-methyl-amino]ethyl]pyrazin-2-yl]pyridine-3-carbonitrile]
≥ 80%: percent control (mortality, anti-feedant effect or growth inhibition) at 200 ppm [1] | percent control (mortality, anti-feedant effect or growth inhibition) at 200 ppm [2] | percent control (mortality or growth inhibition) at 200 ppm [3] | percent control (mortality or growth inhibition) at 200 ppm [4]

CC(Nc1ncnc2c(C(F)(F)F)cc(Cl)cc12)c1nccnc1-c1ccc(OC(F)F)cn1 (centres unmarked) [P.120, 6-chloro-N-[1-[3-[5-(difluoromethoxy)-2-pyridyl]pyrazin-2-yl]ethyl]-8-(trifluoromethyl)quinazolin-4-amine]
≥ 80%: percent control (mortality, anti-feedant effect or growth inhibition) at 200 ppm [1] | percent control (mortality, anti-feedant effect or growth inhibition) at 200 ppm [2] | percent control (mortality or growth inhibition) at 200 ppm [3] | percent control (mortality or growth inhibition) at 200 ppm [4]

CC(c1ncnn1-c1ccc(F)cn1)N(C)c1ncnc2c(Br)cc(C(F)(F)F)cc12 (centres unmarked) [P.185, 8-bromo-N-[1-[2-(5-fluoro-2-pyridyl)-1,2,4-triazol-3-yl]ethyl]-N-methyl-6-(trifluoromethyl)quinazolin-4-amine]
≥ 80%: percent control (mortality, anti-feedant effect or growth inhibition) at 200 ppm [1] | percent control (mortality, anti-feedant effect or growth inhibition) at 200 ppm [2] | percent control (mortality or growth inhibition) at 200 ppm [3] | percent control (mortality or growth inhibition) at 200 ppm [4]

CC(Nc1ncnc2c(OC(F)(F)F)cc(Br)cc12)c1nccnc1-n1nccn1 (centres unmarked) [P.14, 6-bromo-N-[1-[3-(triazol-2-yl)pyrazin-2-yl]ethyl]-8-(trifluoromethoxy)quina-zolin-4-amine]
≥ 80%: percent control (mortality, anti-feedant effect or growth inhibition) at 200 ppm [1] | percent control (mortality, anti-feedant effect or growth inhibition) at 200 ppm [2] | percent control (mortality or growth inhibition) at 200 ppm [3] | percent control (mortality or growth inhibition) at 200 ppm [4]

CC(c1nccnc1-c1ccc(OC(F)F)cn1)N(C)c1ncnc2c(Br)cc(C(F)(F)F)cc12 (centres unmarked) [P.114, 8-bromo-N-[1-[3-[5-(difluoromethoxy)-2-pyridyl]pyrazin-2-yl]ethyl]-N-methyl-6-(trifluoromethyl)quinazolin-4-amine]
≥ 80%: percent control (mortality, anti-feedant effect or growth inhibition) at 200 ppm [1] | percent control (mortality, anti-feedant effect or growth inhibition) at 200 ppm [2] | percent control (mortality or growth inhibition) at 200 ppm [3] | percent control (mortality or growth inhibition) at 200 ppm [4]

CC(Nc1ncnc2c(OC(F)(F)F)cc(Br)cc12)c1ncnn1-c1ccc(C#N)cn1 (centres unmarked) [P.247, 6-[5-[1-[[6-bromo-8-(trifluoromethoxy)quinazo-lin-4-yl]amino]ethyl]-1,2,4-triazol-1-yl]pyridine-3-carbonitrile]
≥ 80%: percent control (mortality, anti-feedant effect or growth inhibition) at 200 ppm [1] | percent control (mortality, anti-feedant effect or growth inhibition) at 200 ppm [2] | percent control (mortality or growth inhibition) at 200 ppm [3] | percent control (mortality or growth inhibition) at 200 ppm [4]

CC(c1nc(Br)nn1-c1ncccn1)N(C)c1ncnc2c(C(F)(F)F)cc(Cl)cc12 (centres unmarked) [P.205, N-[1-(5-bromo-2-pyrimidin-2-yl-1,2,4-triazol-3-yl)ethyl]-6-chloro-N-methyl-8-(trifluoromethyl)quinazolin-4-amine]
≥ 80%: percent control (mortality, anti-feedant effect or growth inhibition) at 200 ppm [1] | percent control (mortality, anti-feedant effect or growth inhibition) at 200 ppm [2] | percent control (mortality or growth inhibition) at 200 ppm [3] | percent control (mortality or growth inhibition) at 200 ppm [4]

CC(Nc1ncnc2c(Br)cc(C(F)(F)F)cc12)c1nccnc1-c1ccc(C#N)cn1 (centres unmarked) [P.117, 6-[3-[1-[[8-bromo-6-(trifluoromethyl)quinazolin-4-yl]amino]ethyl]pyrazin-2-yl]pyridine-3-carbonitrile]
≥ 80%: percent control (mortality, anti-feedant effect or growth inhibition) at 200 ppm [1] | percent control (mortality, anti-feedant effect or growth inhibition) at 200 ppm [2] | percent control (mortality or growth inhibition) at 200 ppm [3] | percent control (mortality or growth inhibition) at 200 ppm [4]

CC(c1nc(Br)nn1-c1ncccn1)N(C)c1ncnc2c(Cl)cc(C(F)(F)F)cc12 (centres unmarked) [P.207, N-[1-(5-bromo-2-pyrimidin-2-yl-1,2,4-triazol-3-yl)ethyl]-8-chloro-N-methyl-6-(trifluoromethyl)quinazolin-4-amine]
≥ 80%: percent control (mortality, anti-feedant effect or growth inhibition) at 200 ppm [1] | percent control (mortality, anti-feedant effect or growth inhibition) at 200 ppm [2] | percent control (mortality or growth inhibition) at 200 ppm [3] | percent control (mortality or growth inhibition) at 200 ppm [4]
